By IC50 is commonly meant the concentration needed to halve the response being measured.

Test [1] has as its target C-Raf Raf-1 (truncated), active (Homo sapiens, UniProt P04049, Y340D/Y341D). Briefly: C-Raf kinase inhibition (MAPH assay / IMAP assay). Conditions: read-out: Biochemical IC50 C-Raf. The source says: We characterized the in vitro inhibitory activity against protein kinases of compounds of the present invention by determining their IC50 values (see Table 2).
Kinase: C-Raf Raf-1 (truncated), active (Upstate; cat. no. 14-352)
Reaction Temperature: room temperature
Assay Plate: 96 well U bottom plate (Greiner, 650161)
MultiScreen-PH Plate: 96 well MAPH Filter Plates (Millipore, MAPHNOB50)
Filter Washing Solution: 0.75% H3PO4
Scintillation Liquid: Supermix Liquid Scintillator (PerkinElmer, 1200-439)
Negative Control (C−): 100 mM EDTA, no inhibitor
Positive Control (C+): no inhibitor
Reaction Buffer (Final Concentration):
Final Assay Concentrations:
Kinase: Use kinase conc. yielding 10% ATP turnover as determined in titration experiment.
Adenosine 5′-[γ-^33P]triphosphate: 12.5 μCi/ml (Amersham Biosciences, BF1000)
Substrate: Myelin Basic Protein 57.8 μM (Invitrogen, 13228-010)
Pipetting Sequence: • 1) Add 10 μl 4-fold concentrated substrate+4-fold concentrated ATP in 3-fold concentrated reaction buffer to each well of assay plate • 2) Add 10 μl […] concentrated inhibitor in 4% DMSO in H2O to each well except to C− and C+ wells (starting point: final inhibitor concentration 10 μM; IC50 determination based on dilution series) • 3) Add 10 μl 4% DMSO in H2O to C− and C+ wells • 4) Add 10 μl 500 mM EDTA in H2O to C− wells • 5) Add 10 μl 50 μCi/ml adenosine 5′-[γ-^33P]triphosphate in H2O to each well • 6) Add 10 μl […] concentrated kinase in Reaction Buffer to each well • 7) Incubate 1 hr at room temperature • 8) Add 10 μl 50 mM EDTA in H2O to each well except to C− wells • 9) Prepare MAPH plates by adding 200 μl 0.75% H3PO4 to each well • 10) Exhaust 0.75% H3PO4 using Millipore vacuum station • 11) Add 60 μl 0.75% H3PO4 to each well of MAPH filter plate • 12) Transfer 30 μl sample per well from assay plate to corresponding well of MAPH filter plate • 13) Incubate 30 min at room temperature • 14) Wash each well of MAPH filter plates 3× with 200 μl 0.75% H3PO4 using Millipore vacuum station • 15) Add 20 μl scintillation liquid to each well of MAPH filter plate • 16) Seal MAPH filter plate • 17) Store MAPH filter plate 30 min in darkness • 18) Quantify radioactivity using scintillation counter (MicroBeta, Perkin-Elmer)
Reaction Volume: 8.0108 μl
IMAP Incubation Time: 60 min
Assay Plate: 384 well U bottom, PP, black, low volume (Corning, 3676)
Compound Plate: 384 well U bottom, PS (Falcon, 3995)
IMAP Binding Buffer A: Molecular Devices, R7282
IMAP Binding Buffer B: Molecular Devices, R7283
IMAP Binding Reagent: Molecular Devices, R7207
Negative Control (C−): no kinase, no inhibitor
Reation buffer: 20 mM Hepes, pH 7.5 • 1 mM DTT • 10 mM MnCl2 • 0.01% Brij35
Kinase: Kinase conc. yielding 50% substrate turnover as determined in titration experiment • c-Raf (Upstate 14-352)
Substrate: 5F1-SGQLIDSMANSFV-NH2 400 nM (jpt Peptide Technologies GmbH, Berlin, Germany)
IMAP Binding Solution: 75% IMAP Binding Buffer A • 25% IMAP Binding Buffer B • IMAP Binding Reagent 1:800
Pipetting Sequence: • 1) Add 6 μl 1.33-fold concentrated substrate+1.33-fold concentrated ATP in 1-fold concentrated reaction buffer to each well of assay plate • 2) Add 10.8 nl 740-fold concentrated inhibitor in 100% DMSO to each well except to C− and C+ wells using pintool (CyBio, Jena, Germany) (starting point: final inhibitor concentration 10 μM; IC50 determination based on dilution series) • 3) Add 10.8 nl 100% DMSO to C− and C+ wells using pintool • 4) Add 2 μl reaction buffer to C− wells • 5) Add 2 μl 4-fold concentrated kinase in reaction buffer to each well except C− wells • 6) Incubate according to reaction time at room temperature • 7) Add 15 μl IMAP binding solution to each well • 8) Incubate according to IMAP incubation time at room temperature • 9) Measure fluorescence polarization (Analyst GT, Molecular Devices)

The test system of a further test is HT-29 tumor cells. The experiment in a line: Anti-proliferative activity, SRB assay. It counts as cell-based, human. Conditions: Homo sapiens, HT-29, 72 h, 72 hours exposure, read-out: CELLULAR IC50 HT-29. The method in brief: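 IC50 derived from % inhibition relative to DMSO controls, measured by sulforhodamine B binding (OD570) after TCA fixation. Cells (3,000-15,000 per well) were seeded a day ahead, then treated with graded compound concentrations for 72 hours.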

For a further test, the target named is B-Raf delta1-415 (Homo sapiens, UniProt P15056). The experiment in a line: B-Raf kinase inhibition (MAPH filter plate, 33P-ATP, MEK1 substrate). The note with it: read-out: Biochemical IC50 B-Raf. The method in brief: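 IC50 values come from dilution series (top 10 μM) measured by scintillation counting of 33P-labelled MEK1 retained on H3PO4-washed filters. Reactions ran 1 h at room temperature in pH 7.0 Mops buffer with MgCl2, MnCl2 and DTT, using 12.5 μCi/ml [γ-33P]ATP and B-Raf delta1-415 titrated to 50% turnover.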
Chain of B-Raf delta1-415 (P15056 416-766): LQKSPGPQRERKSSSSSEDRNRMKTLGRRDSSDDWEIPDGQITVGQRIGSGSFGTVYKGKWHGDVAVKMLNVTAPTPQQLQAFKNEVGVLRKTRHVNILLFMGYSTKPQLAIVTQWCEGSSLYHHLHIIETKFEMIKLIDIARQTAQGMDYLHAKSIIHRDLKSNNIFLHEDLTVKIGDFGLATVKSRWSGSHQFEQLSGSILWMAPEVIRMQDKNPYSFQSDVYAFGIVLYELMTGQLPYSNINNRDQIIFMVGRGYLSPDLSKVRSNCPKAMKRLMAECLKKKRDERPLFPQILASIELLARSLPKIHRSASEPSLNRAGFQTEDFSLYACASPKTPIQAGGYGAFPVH

Chain of C-Raf Raf-1 (truncated), active (P04049 306-648 Y340D/Y341D): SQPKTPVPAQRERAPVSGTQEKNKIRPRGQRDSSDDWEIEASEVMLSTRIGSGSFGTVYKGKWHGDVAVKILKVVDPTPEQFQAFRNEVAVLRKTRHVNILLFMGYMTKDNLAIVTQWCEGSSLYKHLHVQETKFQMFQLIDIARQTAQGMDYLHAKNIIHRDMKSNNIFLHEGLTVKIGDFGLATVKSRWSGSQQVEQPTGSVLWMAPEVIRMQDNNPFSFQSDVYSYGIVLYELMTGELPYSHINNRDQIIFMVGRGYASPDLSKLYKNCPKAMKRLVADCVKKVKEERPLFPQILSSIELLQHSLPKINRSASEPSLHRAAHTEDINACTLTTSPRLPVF

Regarding `COn1c(=O)c(-c2c(Cl)cccc2Cl)cc2cnc(Nc3cccc(CO)c3)nc21` [Compound 1, 6-(2,6-Dichlorophenyl)-2-(3-hydroxymethylphenylamino)-8-methoxy-pyrido[2,3-d]pyrimidin-7-one], the IC50 was < 100 nM in test [1], < 1000 nM with HT-29 tumor cells and < 100 nM on B-Raf delta1-415.
As to `COn1c(=O)c(-c2c(Cl)cccc2Cl)cc2cnc(Nc3cccc(SC)c3)nc21` [Compound 2, 6-(2,6-Dichlorophenyl)-8-methoxy-2-(3-methylthiophenylamino)-pyrido[2,3-d]pyrimidin-7-one], the half-maximal inhibitory concentration (IC50) was < 500 nM in test [1], < 1000 nM in the test on HT-29 tumor cells and < 100 nM at B-Raf delta1-415.
As to `COc1cccc(Nc2ncc3cc(-c4c(Cl)cccc4Cl)c(=O)n(OC)c3n2)c1` [Compound 3, 6-(2,6-Dichlorophenyl)-8-methoxy-2-(3-methoxyphenylamino)-pyrido[2,3-d]pyrimidin-7-one], the figures for the IC50 (in test [1]; in the test with HT-29 tumor cells; at B-Raf delta1-415) were < 100 nM, < 1000 nM and < 100 nM, respectively.
Consider `COn1c(=O)c(-c2c(Cl)cccc2Cl)cc2cnc(Nc3cccc(S(N)(=O)=O)c3)nc21` [Compound 4, 6-(2,6-Dichlorophenyl)-8-methoxy-2-(3-sulfamoylphenylamino)-pyrido[2,3-d]pyrimidin-7-one], for which the values for the IC50 (in test [1]; in the test with HT-29 tumor cells; on B-Raf delta1-415) were < 100 nM, < 1000 nM and < 500 nM, respectively.
With `COn1c(=O)c(-c2ccccc2Cl)cc2cnc(Nc3cccc(CO)c3)nc21` [Compound 5, 6-(2-Chlorophenyl)-8-methoxy-2-(3-hydroxymethylphenylamino)-pyrido[2,3-d]pyrimidin-7-one], the half-maximal inhibitory concentration (IC50) in test [1] was < 100 nM; in the test on HT-29 tumor cells, < 1000 nM; at B-Raf delta1-415 it was < 500 nM.
For `COn1c(=O)c(-c2ccccc2Cl)cc2cnc(Nc3cccc(S(N)(=O)=O)c3)nc21` [Compound 6, 6-(2-Chlorophenyl)-8-methoxy-2-(3-sulfamoylphenylamino)-pyrido[2,3-d]pyrimidin-7-one], the values for the 50% inhibitory concentration (IC50) (in test [1]; with HT-29 tumor cells; on B-Raf delta1-415) were < 100 nM, < 1000 nM and < 500 nM, respectively.
The like results for `COc1cccc(Nc2ncc3cc(-c4ccccc4Cl)c(=O)n(OC)c3n2)c1` [Compound 7, 6-(2-Chlorophenyl)-8-methoxy-2-(3-methoxyphenylamino)-pyrido[2,3-d]pyrimidin-7-one] were, in that order, < 100 nM, < 1000 nM and < 1000 nM.
Regarding `COn1c(=O)c(-c2c(F)cccc2Cl)cc2cnc(Nc3ccc(OCCN(C)C)cc3)nc21` [Compound 8, 6-(2-Chloro-6-fluorophenyl)-8-methoxy-2-(4-(2-dimethylaminoethoxy)-phenylamino)-pyrido[2,3-d]pyrimidin-7-one], the half-maximal inhibitory concentration (IC50) was < 100 nM in test [1], < 1000 nM with HT-29 tumor cells and < 100 nM at B-Raf delta1-415.
Turning to `COn1c(=O)c(-c2cc(NC(=O)c3ccccc3)ccc2Cl)cc2cnc(Nc3ccc(N4CCN(C)CC4)cc3)nc21` [Compound 9, 6-(5-Benzoylamino-2-chloro-phenyl)-8-methoxy-2-(4-(4-methylpiperazino)-phenylamino)-pyrido[2,3-d]pyrimidin-7-one], the IC50 in test [1] was < 100 nM; in the test with HT-29 tumor cells, < 1000 nM; on B-Raf delta1-415, < 500 nM.
In the same order, the values of `COn1c(=O)c(-c2c(Cl)cccc2Cl)cc2cnc(Nc3cccc(S(=O)(=O)CCO)c3)nc21` [Compound 10, 6-(2,6-Dichlorophenyl)-8-methoxy-2-(3-(2-hydroxyethylsulfonyl)phenylamino)-pyrido[2,3-d]pyrimidin-7-one] are < 100 nM, < 1000 nM and < 100 nM.
In the same order, the values of `COn1c(=O)c(-c2c(Cl)cccc2Cl)cc2cnc(Nc3ccc(S(C)(=O)=O)cc3)nc21` [Compound 11, 6-(2,6-Dichlorophenyl)-8-methoxy-2-(4-methylsulfonylphenylamino)-pyrido[2,3-d]pyrimidin-7-one] are < 100 nM, < 1000 nM and < 100 nM.
With `COn1c(=O)c(-c2c(Cl)cccc2Cl)cc2cnc(Nc3ccncc3)nc21` [Compound 13, 6-(2,6-Dichlorophenyl)-8-methoxy-2-(pyrid-4-ylamino)-pyrido[2,3-d]pyrimidin-7-one], the IC50 in test [1] is < 100 nM; with HT-29 tumor cells, < 1000 nM; on B-Raf delta1-415, < 100 nM.
With `COn1c(=O)c(-c2c(Cl)cccc2Cl)cc2cnc(Nc3ccc(N4CCN(C)CC4)cc3)nc21` [Compound 14, 6-(2,6-Dichlorophenyl)-8-methoxy-2-(4-(4-methylpiperazino)-phenylamino)-pyrido[2,3-d]pyrimidin-7-one], the IC50 in test [1] is < 100 nM; with HT-29 tumor cells it was < 1000 nM; on B-Raf delta1-415 it was < 100 nM.
Take `COn1c(=O)c(-c2c(F)cccc2Cl)cc2cnc(Nc3cccc(CO)c3)nc21` [Compound 15, 6-(2-Chloro-6-fluorophenyl)-8-methoxy-2-(3-hydroxymethylphenylamino)-pyrido[2,3-d]pyrimidin-7-one]: the IC50 in test [1] is < 100 nM; in the test on HT-29 tumor cells it was < 1000 nM; on B-Raf delta1-415, < 100 nM.
For `COn1c(=O)c(-c2ccc(Cl)cc2Cl)cc2cnc(Nc3ccc(OCCN(C)C)cc3)nc21` [Compound 16, 6-(2,4-Dichlorophenyl)-8-methoxy-2-(4-(2-dimethylaminoethoxy)-phenylamino)-pyrido[2,3-d]pyrimidin-7-one], the figures for the IC50 (in test [1]; with HT-29 tumor cells; on B-Raf delta1-415) were < 500 nM, < 1000 nM and < 500 nM, respectively.
As to `COn1c(=O)c(-c2c(Cl)cccc2Cl)cc2cnc(Nc3ccc(CCO)cc3)nc21` [Compound 17, 6-(2,6-Dichlorophenyl)-8-methoxy-2-(4-(2-hydroxyethyl)-phenylamino)-pyrido[2,3-d]pyrimidin-7-one], the values for the IC50 (in test [1]; in the test on HT-29 tumor cells; on B-Raf delta1-415) were < 100 nM, < 1000 nM and < 100 nM, respectively.
In the case of `COn1c(=O)c(-c2ccc(Cl)c(Cl)c2)cc2cnc(Nc3ccc(N4CCN(C)CC4)cc3)nc21` [Compound 18, 6-(3,4-Dichlorophenyl)-8-methoxy-2-(4-(4-methylpiperazino)-phenylamino)-pyrido[2,3-d]pyrimidin-7-one], the IC50 is < 1000 nM in test [1], < 10000 nM in the test on HT-29 tumor cells and < 1000 nM at B-Raf delta1-415.

The values above are taken from patent US8518958B2, “Pyrido [2,3-D] pyrimidines and their use as kinase inhibitors” (Forma Therapeutics, Inc., priority 2006, dated 2013).
